The values that follow are results of earlier work, collected in patent US6413950B1, “Pharmaceutical preparation containing dithranol” (esparma GmbH, priority 1999, dated 2002).

The conditions of the data set: background statement on the active agent dithranol.

On to `O=C1c2c(O)cccc2Cc2cccc(O)c21` [Dithranol], for which the solubility in water entry was “not soluble in water”.
